Experimental data reported in patent publication US12215173B2, “Kappa opioid receptor peptide amide ligands” (priority 2019, dated 2025).
Square brackets hold non-standard residues; d marks the D form. Peptide text beside a SMILES is read from it. * marks the point of attachment. Pyrrolidinyl(3-NH2,3-CO2Me) = COC(=O)C1(N)CCN(*)C1; dAla(cPr) = N[C@H](CC1CC1)C(=O)O

What was measured:
[1] = molecular target: recombinant human kappa (KOR) opioid receptor (Homo sapiens (Human), UniProt P41145); assay: biochemical; type: binding; conditions: HEK293 cell membranes, 0.5 nM [3H]diprenorphine
[2] = molecular target: Opioid Kappa Receptor (recombinant human, HEK293 cells) (Homo sapiens (Human), UniProt P41145); assay: cell-based; conditions: read-out: EC50
[3] = molecular target: recombinant human delta (DOR) opioid receptor (Homo sapiens (Human), UniProt P41143); assay: Opioid receptor radioligand binding assay, DOR; conditions: HEK293 cell membranes, 0.5 nM [3H]DADLE; read-out: DOR, IC50
[4] = molecular target: recombinant human mu (MOR) opioid receptor (Homo sapiens (Human), UniProt P35372); assay: Opioid receptor radioligand binding assay, MOR; conditions: HEK293 cell membranes, 0.5 nM [3H]DAMGO; read-out: MOR, IC50

Chain of recombinant human delta (DOR) opioid receptor (P41143 whole entry, looked up): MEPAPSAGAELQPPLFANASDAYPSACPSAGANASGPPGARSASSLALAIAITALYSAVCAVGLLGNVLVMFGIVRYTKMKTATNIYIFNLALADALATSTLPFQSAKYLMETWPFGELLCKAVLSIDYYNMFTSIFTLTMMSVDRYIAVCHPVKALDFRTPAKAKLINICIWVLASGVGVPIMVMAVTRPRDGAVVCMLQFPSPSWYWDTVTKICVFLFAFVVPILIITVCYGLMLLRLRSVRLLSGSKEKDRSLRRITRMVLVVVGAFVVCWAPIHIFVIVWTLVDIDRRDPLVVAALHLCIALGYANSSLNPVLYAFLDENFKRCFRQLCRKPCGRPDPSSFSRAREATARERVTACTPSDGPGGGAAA

Row | Structure (SMILES) | IC50 [1] [nM] | EC50 [2] [nM] | IC50 [3] [nM] | IC50 [4] [nM]
1 | COC(=O)C1(N)CCN(C(=O)[C@@H](CCCNC(=N)N)NC(=O)[C@@H](CC2CC2)NC(=O)[C@@H](Cc2ccccc2)NC(=O)[C@H](N)Cc2ccccc2)C1 (some centres unmarked) [Compound 133] (H-[dF][dF][dAla(cPr)][dR]-{Pyrrolidinyl(3-NH2,3-CO2Me)}) | 1.3 | 9.64 | > 10000 | > 10000
2 | CC(C)C[C@@H](NC(=O)[C@@H](Cc1ccccc1)NC(=O)[C@H](N)Cc1ccccc1)C(=O)N[C@H](CCCCN)C(=O)N1CCC(NC(=O)C(=O)NC2CC2)CC1 [Compound 13-22] | 0.096 | 24.8 | > 10000 | > 10000
3 | CC(C)C[C@@H](NC(=O)[C@@H](Cc1ccccc1)NC(=O)[C@H](N)Cc1ccccc1)C(=O)N[C@H](CCCCN)C(=O)N1CCC(NC(=O)CC[C@H](N)C(N)=O)CC1 [Compound 13-41] | 0.21 | 9.12 | > 10000 | 8220
4 | CC(C)C[C@@H](NC(=O)[C@@H](Cc1ccccc1)NC(=O)[C@H](N)Cc1ccccc1)C(=O)N[C@H](CCCCN)C(=O)N(C)C[C@H](O)[C@@H](O)[C@H](O)[C@H](O)CO [Compound 13-50] | 0.37 | 12.2 | > 10000 | 1110
5 | CNC(=O)N1CCN(C(=O)[C@@H](CCCCN)NC(=O)[C@@H](CC(C)C)NC(=O)[C@@H](Cc2ccccc2)NC(=O)[C@H](N)Cc2ccccc2)CC1 [Compound 13-58] | 0.29 | 10.8 | > 10000 | > 10000
6 | CC(C)C[C@@H](NC(=O)[C@@H](Cc1ccccc1)NC(=O)[C@H](N)Cc1ccccc1)C(=O)N[C@H](CCCCN)C(=O)NCCOCCOCCO [Compound 13-52] | 1.02 | 12.1 | > 10000 | > 10000
7 | CCNC(=O)N1CCN(C(=O)[C@@H](CCCCN)NC(=O)[C@@H](CC(C)C)NC(=O)[C@@H](Cc2ccccc2)NC(=O)[C@H](N)Cc2ccccc2)CC1 [Compound 13-64] | 0.47 | 2.91 | > 10000 | > 10000
8 | CC(C)C[C@@H](NC(=O)[C@@H](Cc1ccccc1)NC(=O)[C@H](N)Cc1ccccc1)C(=O)N[C@H](CCCCN)C(=O)N1CCNC(=O)C1 [Compound 13-14] | 0.21 | 12.9 | > 10000 | > 10000
